The test has as its target mGluR4 (UniProt Q14833). Kind of test: mGluR4 potentiation assay: increase in response to an EC20 concentration of agonist (species not given). In kind it is cell-based. To be noted: EC50 for potentiation of mGluR4; table does not state human or rat. The protocol: The disclosed compounds and compositions can be evaluated for their ability to act as a potentiator of metabotropic glutamate receptor activity, in particular mGluR4 activity, by any suitable known methodology known in the art. For example, Chinese Hamster Ovary (CHO) cells transfected with human mGluR4 or […] co-transfected with rat mGluR4 and the G-protein regulated Inwardly Rectifying Potassium channel (GIRK) were plated in clear bottom assay plates for assay in a Hamamatsu FDSS Fluorometric Plate Reader. The cells were loaded with either a Ca2+-sensitive fluorescent dye or the thallium responsive dye and the plates were washed and placed into a suitable kinetic plate reader. For human mGluR4 assays, a fluorescence baseline was established for 3-5 seconds, the disclosed compounds were then added to the cells, and the response in cells was measured. Approximately two and a half minutes later, a concentration of mGluR4 orthosteric agonist (e.g. glutamate or L-AP4) eliciting approximately 20% (EC20) of the maximal agonist response was added to the cells, and the response was measured. Two minutes later, a concentration of mGluR4 agonist (e.g. glutamate or L-AP4) eliciting 80% (EC80) of the maximal agonist response was added to the cells, and the response was measured. For rat mGluR4/GIRK experiments, a baseline was established for approximately five seconds, disclosed compounds were added, and either an EC20 or EC80 concentration of agonist was added approximately two and one half minutes later. Potentiation of the agonist response of mGluR4 by the disclosed compounds was observed as an increase in response to the EC20 concentration of agonist in the presence of compound compared to the response to agonist in the absence of compound. Similarly, antagonism of the agonist response of mGluR4 by the disclosed compounds was observed as a decrease in response to the EC80 concentration of agonist in the presence of compound compared to the response to agonist in the absence of compound.
The above described assay operated in two modes. In the first mode, a range of concentrations of the disclosed compounds are added to cells, followed by a single fixed concentration of agonist. If the compound acts as a potentiator, an EC50 value for potentiation and a maximum extent of potentiation by the compound at this concentration of agonist is determined by non-linear curve fitting. If the compound acts as a noncompetitive antagonist, an IC50 value is determined by non-linear curve fitting. In the second mode, several fixed concentrations of the disclosed compounds are added to various wells on a plate, followed by a range in concentrations of agonist for each concentration of disclosed compound. The EC50 values for the agonist at each concentration of compound are determined by non-linear curve fitting. A decrease in the EC50 value of the agonist with increasing concentrations of the sample compound (a leftward shift of the agonist concentration-response curve) is an indication of the degree of mGluR4 potentiation at a given concentration of the sample compound. A decrease in the maximal response of the agonist with increasing concentrations of the sample compounds, with or without a rightward shift in agonist potency, is an indication of the degree of noncompetitive antagonism at mGluR4. The second mode also indicates whether the sample compounds also affect the maximum response to mGluR4 to agonists.
These compounds are positive allosteric modulators (potentiators) of human and rat mGluR4 and were selective for mGluR4 compared to the other seven subtypes of metabotropic glutamate receptors.
Usually EC50 stands for the concentration giving half of the maximal effect. Regarding `CC(C)n1cc2cc(Nc3n[nH]c4cccnc34)cc(Cl)c2n1` [Example 62, N-(7-chloro-2-isopropyl-2H-indazol-5-yl)-1H-pyrazolo[4,3-b]pyridin-3-amine], the 50% effective concentration (EC50) is 0.914 µM.
Then `Cc1nn(CC2CC(F)(F)C2)c2ccc(Nc3n[nH]c4cccnc34)cc12` [Example 288, N-(1-((3,3-difluorocyclobutyl)methyl)-3-methyl-1H-indazol-5-yl)-1H-pyrazolo[4,3-b]pyridin-3-amine], with 0.68 µM; and `Cn1nc(-c2ccncc2)c2ccc(Nc3n[nH]c4cccnc34)cc21` [Example 218, N-[1-methyl-3-(4-pyridyl)indazol-6-yl]-1H-pyrazolo[4,3-b]pyridin-3-amine], with 0.871 µM.
In the case of `CC(C)n1ncc2cc(Nc3n[nH]c4cccnc34)cnc21` [Example 152, N-(1-isopropyl-1H-pyrazolo[3,4-b]pyridin-5-yl)-1H-pyrazolo[4,3-b]pyridin-3-amine] it was 0.371 µM; in that of `Cc1nn(CC2CC2)c2ncc(Nc3n[nH]c4cccnc34)cc12` [Example 257, 1-(cyclopropylmethyl)-3-methyl-N-(1H-pyrazolo[4,3-b]pyridin-3-yl)pyrazolo[3,4-b]pyridin-5-amine], above 10 µM; in that of `Cn1nc(C(=O)N2CCC(C(N)=O)CC2)c2ccc(Nc3n[nH]c4cccnc34)cc21` [Example 161, 1-[1-methyl-6-(1H-pyrazolo[4,3-b]pyridin-3-ylamino)indazole-3-carbonyl]piperidine-4-carboxamide], above 10 µM.
Regarding `CCC(F)(F)Cn1nc(C)c2cc(Nc3n[nH]c4cccnc34)ccc21` [Example 136, N-(1-(2,2-difluorobutyl)-3-methyl-1H-indazol-5-yl)-1H-pyrazolo[4,3-b]pyridin-3-amine], the half-maximal effective concentration (EC50) is 0.253 µM.
Then `CCCCn1nc(C)c2cc(Nc3n[nH]c4cccnc34)ccc21` [Example 114, N-(1-butyl-3-methyl-1H-indazol-5-yl)-1H-pyrazolo[4,3-b]pyridin-3-amine], with 0.045 µM; and `Cn1nc(C(=O)N2CCC(S(C)(=O)=O)C2)c2ccc(Nc3n[nH]c4cccnc34)cc21` (stereo not drawn) [Example 170, [1-methyl-6-(1H-pyrazolo[4,3-b]pyridin-3-ylamino)indazol-3-yl]-(3-methylsulfonylpyrrolidin-1-yl)methanone], with 2.34 µM; and `CCCOc1nn(C)c2cc(Nc3n[nH]c4cccnc34)ccc12` [Example 239, N-(1-methyl-3-propoxy-1H-indazol-6-yl)-1H-pyrazolo[4,3-b]pyridin-3-amine], with 0.171 µM.
For `Cc1cncc(-c2nn(C)c3cc(Nc4n[nH]c5cccnc45)ccc23)c1` [Example 178, N-(1-methyl-3-(5-methylpyridin-3-yl)-1H-indazol-6-yl)-1H-pyrazolo[4,3-b]pyridin-3-amine], the EC50 stood at 4.18 µM.
Then `Cn1nc(C2(C)CC2)c2ccc(Nc3n[nH]c4nccnc34)cc21` [Example 29, N-(1-methyl-3-(1-methylcyclopropyl)-1H-indazol-6-yl)-1H-pyrazolo[3,4-b]pyrazin-3-amine], with 0.025 µM; and `Cc1n[nH]c2ccc(Nc3n[nH]c4cccnc34)cc12` [Example 79], with 0.813 µM; and `Cc1nn(CCO)c2ncc(Nc3n[nH]c4cccnc34)cc12` [Example 256, 2-[3-methyl-5-(1H-pyrazolo[4,3-b]pyridin-3-ylamino)pyrazolo[3,4-b]pyridin-1-yl]ethanol], with above 10 µM.
Then `[2H]C([2H])([2H])n1nc(C2CC2)c2ccc(Nc3n[nH]c4ncccc34)cc21` [Example 43, N-(3-cyclopropyl-1-(methyl-d3)-1H-indazol-6-yl)-1H-pyrazolo[3,4-b]pyridin-3-amine], with 0.16 µM; and `Cn1nc(C2(C)CC2)c2ccc(Nc3n[nH]c4ncccc34)cc21` [Example 30, N-(1-methyl-3-(1-methylcyclopropyl)-1H-indazol-6-yl)-1H-pyrazolo[3,4-b]pyridin-3-amine], with 0.129 µM.
As for `Cn1nc(C(=O)NCCCS(C)(=O)=O)c2ccc(Nc3n[nH]c4cccnc34)cc21` [Example 169, 1-methyl-N-(3-methylsulfonylpropyl)-6-(1H-pyrazolo[4,3-b]pyridin-3-ylamino)indazole-3-carboxamide], the EC50 stood at 4.61 µM.
Take `Cn1nc(C(=O)N2CCC(F)(F)CC2)c2ccc(Nc3n[nH]c4cccnc34)cc21` [Example 162, (4,4-difluoro-1-piperidyl)-[1-methyl-6-(1H-pyrazolo[4,3-b]pyridin-3-ylamino)indazol-3-yl]methanone]: the 50% effective concentration (EC50) amounted to 0.498 µM.
In the case of `Cc1cc(Cn2ncc3ncc(Nc4n[nH]c5ccccc45)cc32)no1` [Example 26, N-(1H-indazol-3-yl)-1-((5-methylisoxazol-3-yl)methyl)-1H-pyrazolo[4,3-b]pyridin-6-amine] it was above 10 µM; in that of `CC(C)COc1nn(C)c2cc(Nc3n[nH]c4cccnc34)ccc12` [Example 244, N-(3-isobutoxy-1-methyl-1H-indazol-6-yl)-1H-pyrazolo[4,3-b]pyridin-3-amine], 0.231 µM; in that of `c1cc2c(cnn2CC2CCC2)cc1Nc1n[nH]c2c1CCCC2` [Example 81, 1-(cyclobutylmethyl)-N-(4,5,6,7-tetrahydro-1H-indazol-3-yl)-1H-indazol-5-amine], above 10 µM.
In the case of `Cn1ncc2c(Cl)cc(Nc3n[nH]c4ccccc34)cc21` [Example 9, N-(4-chloro-1-methyl-1H-indazol-6-yl)-1H-indazol-3-amine] it was 0.064 µM; in that of `Cn1nc(C(=O)NC2CC(F)(F)C2)c2ccc(Nc3n[nH]c4cccnc34)cc21` [Example 174], 0.116 µM.
In the case of `Cn1nc(OCC2CC2(F)F)c2ccc(Nc3n[nH]c4cccnc34)cc21` (stereo not drawn) [Example 188, N-[3-[(2,2-difluorocyclopropyl)methoxy]-1-methyl-indazol-6-yl]-1H-pyrazolo[4,3-b]pyridin-3-amine] it was 0.112 µM.
As for `Cn1ncc2ncc(Nc3n[nH]c4nccnc34)cc21` [Example 148, N-(1-methyl-1H-pyrazolo[4,3-b]pyridin-6-yl)-1H-pyrazolo[3,4-b]pyrazin-3-amine], the EC50 came out at 3.53 µM.
In the case of `CCC(C)n1nc(C)c2cc(Nc3n[nH]c4cccnc34)ccc21` (stereo not drawn) [Example 102, N-(1-(sec-butyl)-3-methyl-1H-indazol-5-yl)-1H-pyrazolo[4,3-b]pyridin-3-amine] it was 0.367 µM; in that of `Cc1nn(C2CCCC2)c2ncc(Nc3n[nH]c4cccnc34)cc12` [Example 254, 1-cyclopentyl-3-methyl-N-(1H-pyrazolo[4,3-b]pyridin-3-yl)pyrazolo[3,4-b]pyridin-5-amine], above 10 µM; in that of `Cn1nc(C(=O)N2CCS(=O)(=O)CC2)c2ccc(Nc3n[nH]c4cccnc34)cc21` [Example 165, (1,1-dioxo-1,4-thiazinan-4-yl)-[1-methyl-6-(1H-pyrazolo[4,3-b]pyridin-3-ylamino)indazol-3-yl]methanone], 0.801 µM.
Consider `CCn1nc(C)c2cc(Nc3n[nH]c4cccnc34)cnc21` [Example 258, 1-ethyl-3-methyl-N-(1H-pyrazolo[4,3-b]pyridin-3-yl)pyrazolo[3,4-b]pyridin-5-amine], for which the concentration giving a half-maximal response (EC50) is 0.48 µM.
In the case of `Cc1nn(C(C)C)c2cc(Nc3n[nH]c4ccccc34)ccc12` [Example 19, N-(1-isopropyl-3-methyl-1H-indazol-6-yl)-1H-indazol-3-amine] it was above 10 µM; in that of `Cn1nc(O)c2ccc(Nc3n[nH]c4cccnc34)cc21` [Example 37, 6-((1H-pyrazolo[4,3-b]pyridin-3-yl)amino)-1-methyl-1H-indazol-3-ol], 3.15 µM.
Then `Cn1cc2c(Cl)cc(Nc3n[nH]c4cccnc34)cc2n1` [Example 3, N-(4-chloro-2-methyl-2H-indazol-6-yl)-1H-pyrazolo[4,3-b]pyridin-3-amine], with 0.525 µM.
On to `CC(C)n1nc(C2CC2)c2ccc(Nc3n[nH]c4nccnc34)cc21` [Example 17, N-(3-cyclopropyl-1-isopropyl-1H-indazol-6-yl)-1H-pyrazolo[3,4-b]pyrazin-3-amine], for which the EC50 is above 10 µM.

The values are drawn from patent US10526323B2, “Indazole and azaindazole substituted compounds as mGluR4 allosteric potentiators, compositions, and methods of treating neurological dysfunction” (Vanderbilt University, priority 2015, dated 2020).
